Measured values published in PubChem BioAssay (NCI).
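Exposure lasted 48 hours, with cells grown in 96-well plates and compounds tested at five concentrations. GI50 marks 50% less growth. TGI: total growth inhibition.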

Legend:
Assay in all cases: NCI-60 cell line screen, 48 h
[1] = tested on: DU-145 prostate
[2] = tested on: COLO 205 colon
[3] = tested on: MALME-3M melanoma
[4] = tested on: NCI-H23 lung
[5] = tested on: M14 melanoma
[6] = tested on: LOX IMVI melanoma
[7] = tested on: SR leukemia
[8] = tested on: NCI/ADR-RES ovarian
[9] = tested on: SF-295 CNS
[10] = tested on: MOLT-4 leukemia

Row | Structure (SMILES) | TGI [1] | TGI [2] | TGI [3] | TGI [4] | TGI [5] | TGI [6] | TGI [7] | TGI [8] | TGI [9] | TGI [10] | GI50 [1] | GI50 [2] | GI50 [3] | GI50 [4] | GI50 [6] | GI50 [7] | GI50 [8] | GI50 [9] | GI50 [10] | GI50 [5]
1 | NC(N)=N/N=C(/c1ccccc1)c1ccc(O)cc1O | > 100 µM | 33.2 µM | > 100 µM | > 100 µM | 58.7 µM | > 100 µM | 60.8 µM | > 100 µM | > 100 µM |  |  |  |  |  |  |  |  |  |  | 
2 | COc1ccc(CC(C#N)c2cc(OC)c(OC)c(OC)c2)cc1 (configuration not stated) | 1.82 µM | 0.133 µM | > 100 µM | 1.96 µM | > 100 µM | > 100 µM | 2.15 µM | > 100 µM | 0.0783 µM | > 100 µM |  |  |  |  |  |  |  |  |  | 
3 | OCCCCC#Cc1ccccc1C#Cc1cccs1 | 25.7 µM | 31.5 µM | 55.4 µM | 30.9 µM |  | 26.8 µM | 14.5 µM | 34.5 µM | 34.7 µM | 40.3 µM | 13 µM | 16.4 µM | 22.8 µM | 14.2 µM | 13.9 µM | 1.85 µM | 17.7 µM | 19 µM | 18.8 µM | 
4 | Cc1sc2c(c1C)C(c1ccc(Cl)cc1)=N[C@@H](CC(=O)Nc1ccc(O)cc1)c1nnc(C)n1-2 | 42.8 µM | 14.3 µM | 33.4 µM | 39.2 µM | 20.2 µM | 6.29 µM | 28.6 µM | 69.7 µM | 22.4 µM | 54.7 µM | 14.7 µM | 0.146 µM | 12.5 µM | 7.98 µM | 0.109 µM | 0.344 µM | 9.45 µM | 2 µM | 3.85 µM | 0.276 µM
5 | Cc1ccc(C(=O)Nc2ccccc2C(=O)N/N=C(\c2ccccc2)c2ccccn2)cc1 | > 100 µM | > 100 µM | > 100 µM | > 100 µM | 3.26 µM | > 100 µM | > 100 µM | > 100 µM | > 100 µM | > 100 µM | 0.434 µM | 0.334 µM | 0.752 µM | 0.723 µM | 0.302 µM | 0.208 µM | 0.2 µM | 0.377 µM | 0.374 µM | 0.272 µM
6 | Oc1oc(-c2ccccc2)nc1/C=C1/C=NN=N1 | > 100 µM | > 100 µM | > 100 µM | > 100 µM | > 100 µM | > 100 µM | > 100 µM | > 100 µM | > 100 µM | > 100 µM |  |  |  |  |  |  |  |  |  | 
7 | O=C1/C(=C/c2ccc(C(F)(F)F)cc2)COc2ccc(O)cc21 | 12 µM | 5.83 µM | 5.1 µM | 5.38 µM | 10.6 µM | 3.11 µM | 10.6 µM | 6.42 µM | 24.9 µM | 21.2 µM | 3.23 µM | 2.47 µM | 2.05 µM | 2.14 µM | 1.69 µM | 1.21 µM | 2.15 µM | 12.1 µM | 2.33 µM | 3.24 µM
8 | CN(C)CCN1C(=O)c2cccc3c(-c4ccc5ncn(C6CCCCC6)c5c4)ccc(c23)C1=O | 13.5 µM | 4.14 µM | 3.93 µM | 3.82 µM | 3.61 µM |  | 5.47 µM | 13.4 µM | 5.93 µM | 10.1 µM | 3.14 µM | 1.21 µM | 1.9 µM | 1.35 µM |  | 0.496 µM | 1.14 µM | 1.54 µM | 0.446 µM | 1.7 µM
9 | CCN1CCN(c2nc(C)cc(N(CCCNc3ccnc4cc(Cl)ccc34)Cc3ccco3)n2)CC1 | 19.7 µM | 3.98 µM | 3.67 µM | 27 µM | 3.63 µM | 3.75 µM | 5.73 µM | 19.7 µM | 3.63 µM | 16.8 µM | 5.89 µM | 1.85 µM | 1.89 µM | 9.9 µM | 1.76 µM | 2.08 µM | 4.42 µM | 1.81 µM | 3.14 µM | 1.89 µM
10 | c1cc(C2N3CCCN2CC3)ccn1 (configuration not stated) | > 100 µM | > 100 µM | 80.1 µM | > 100 µM | > 100 µM | > 100 µM | > 100 µM | > 100 µM | > 100 µM | > 100 µM |  |  |  |  |  |  |  |  |  | 
11 | CC1(C)CC(O)CCCCCCOc2c(CN)cccc2NC(=O)c2nc(cnc2N)-c2ccc(cc2)S1(=O)=O (configuration not stated) | 2.07 µM | 2.08 µM | 2.81 µM |  | 2.58 µM | 2.88 µM | 0.469 µM | 13.4 µM | 3.02 µM | 2.01 µM | 0.0359 µM | 0.394 µM | 1.31 µM |  | 1.26 µM | < 0.01 µM | 2.83 µM | 1.49 µM | < 0.0122 µM | 0.0927 µM
12 | CCCCCCCCCCC(CN(CC)CC)C(O)c1ccccc1 (configuration not stated) | 3.49 µM | 3.7 µM | 3.85 µM | 3.74 µM | 3.4 µM | 3.19 µM | 6.23 µM | 3.7 µM | 3.48 µM | 5.8 µM | 1.89 µM | 1.81 µM | 1.95 µM | 1.93 µM | 1.75 µM | 2.44 µM | 1.9 µM | 1.84 µM | 2.25 µM | 1.74 µM
13 | COc1cccc2cc(N(C)c3nc(C)nc4ccsc34)ccc12 | 10.6 µM |  | 18 µM | 18 µM | 12.6 µM | 13.6 µM | 26.8 µM | 11 µM | 12.4 µM | 29.7 µM | < 0.01 µM | < 0.01 µM | < 0.0116 µM | < 0.01 µM | < 0.01 µM | < 0.01 µM | < 0.01 µM | < 0.01 µM | < 0.01 µM | < 0.01 µM
14 | CO[C@H]1/C=C/C[C@H](C)[C@@H](C)S(=O)(=O)NC(=O)c2ccc3c(c2)N(C[C@@H]2CC[C@H]21)C[C@@]1(CCCc2cc(Cl)ccc21)CO3 | 15.3 µM | 6.6 µM | 4.14 µM | 4.12 µM | 7.31 µM | 3.41 µM | 12.2 µM | 6.6 µM | 6.05 µM | 8.8 µM | 4.56 µM | 2.7 µM | 1.97 µM | 1.58 µM | 1.84 µM | 0.67 µM | 2.23 µM | 1.97 µM | 1.73 µM | 2.4 µM
